Patent publication US3998963A, “Tertiary butyl substituted carbamoyl oxime pesticides” (priority 1975, dated 1976)
In brackets after ≈: the same amount, converted by molar mass. Like-named read-outs stand apart in the source and are kept apart here.

What was measured:
Format in all cases: in vivo
[1] = test system: houseflies (Musca domestica, L.); test: Fly Immersion Test; details: for LC50: Musca domestica, immersion (contact), 24 hours, read-out: Imm LD50, Housefly; for contact vs stomach poison, house fly (in words): immersion vs bait; for (Imm/Bait), Housefly: ratio immersion/bait LD50
Method: (§1) Suspensions of the test compouns were prepared by dissolving one gram of compound in 50 milliliters of acetone in which had been dissolved 0.1 gram (10 percent of the weight of compound) of an alkylphenoxy polyethoxyethanol surfactant, as an emulsifying or dispersing agent. The resulting solution was mixed into 150 milliliters of water to give roughly 200 milliliters of a suspension containing the compound in finely divided form. The thus-prepared stock suspension contained 0.5 percent by weight of compound. The test concentrations in parts per million by weight employed in the tests described hereinbelow were obtained by appropriate dilutions of the stock suspension with water. The test procedures were as follows:
The test organisms used were 4 to 6 day old adult houseflies (Musca domestica, L.) reared under controlled conditions of 80° + 5° F. and 50 + 5 percent relative humidity. The adult flies were immobilized by anesthetizing with CO2. Twenty-five immobilized individuals (males and females) were then used for the test of each test compound.
Twenty-five randomly selected adult flies were thoroughly wetted in a formulated mixture of the test chemical (50 ml) by pouring the insects and formulation from one beaker to another six times. Excess liquid was removed by transferring the insects into a standard food strainer (5-inch diameter) which was then blotted with a paper towel. The treated flies were transferred to clean food strainer which was inverted over a paper cup containing a wad of cotton saturated with a 10 percent aqueous sugar solution provided as food for surviving insects. An equivalent amount of a water solution containing acetone and emulsifier in the same concentrations as the insecticidal mixture but without the candidate insecticide was applied to other flies in the same manner. These insects serve as controls for the experiment.
The surviving caged flies were allowed to feed on the sugar water for a period of 24 hours. Room temperature and humidity are 80° + 5° F. and 50 + 5 percent relative humidity, respectively. At the end of the holding period flies which show no sign of movement upon stimulation were considered dead.
(§2) In Table 1 are presented insect and rat toxicity data (bait tests) on a comparative basis of the compounds described above. […] Rat toxicity is also more meaningfully compared on the basis of molar weight LD50 values. The relative efficacy of the parent compounds as compared to the previously known derivatives and as compared to the new compounds of this invention is also shown in Table 1. The ratio of efficacy as contact poisons (immersion/bait) of the compounds tested against Armyworm and House Fly is presented in Table 2 along with the results of the phytotoxicity tests of the compounds on bean, corn, tomato and cotton.

[2] = test system: bean aphid (Aphis fabae Scop.); test: Bean Aphid Foliage Spray Test; details: foliar, 24 hour holding period, read-out: Insect LD50, Aphid
Method: as §1
Bean Aphid Foliage Spray Test
Adults and nymphal stages of the bean aphid (Aphis fabae Scop.) reared on potted dwarf nasturtium plants at 65°-70° F. and 50-70 per cent relative humidity, constituted the test insects. For testing purposes, the number of aphids per pot was standardized to 100-150 by trimming plants containing excess aphids.
The test compounds were formulated by diluting the stock suspension with water to give a suspension containing 500 parts of test compound per million parts of final formulation.
The potted plants (one pot per compound tested) infested with 100-150 aphids, were placed on a revolving turntable and sprayed with 100 -110 milliliters of test compound formulation by use of a DeVilbiss spray gun set at 40 psig. air pressure. This application, which lasted 25 seconds, was sufficient to wet the plants to run-off. As a control, 100-110 milliliters of a water-acetone-emulsifier solution containing no test compound were also sprayed on infested plants. After spraying, the pots were placed on their sides on a sheet of white standard mimeograph paper which had peen previously ruled to facilitate counting. Temperature and humidity in the test room during the 24 hour holding period were 65°-70° F. and 50-70 per cent, respectively. Aphids which fell onto the paper and were unable to remain standing after being uprighted were considered dead. Aphids remaining on the plants were observed closely for movement and those which were unable to move the length of the body upon stimulation by prodding were considered dead. Per cent mortality was recorded for various concentration levels.

[3] = test system: southern armyworm (Spodoptera eridania, (Cram.)); test: Southern Armyworm Leaf Spray Bait Test; details: for LC50: Spodoptera eridania, 72 h, leaf spray bait, 3 days, read-out: Insect LD50, Armyworm; for (b) relative efficacy of derivative vs parent compound, Armyworm: bait, formula of footnote b is drawing 8
Method: as §1
Southern Armyworm Leaf Spray Bait Test
Larvae of the southern armyworm (Spodoptera eridania, (Cram.)), reared on Tendergreen bean plants at a temperature of 80°±5° F. and a relative humidity of 50±5 per cent, constituted the test insects.
The test compounds were formulated by diluting the stock suspension with water to give a suspension containing 500 parts of test compound per million parts of final formulation. Potted Tendergreen bean plants of standard height and age were placed on a revolving turntable and sprayed with 100-110 milliliters of test compound formulation by use of a DeVilbiss spray gun set at 10 psig air pressure. This application, which lasted 25 seconds, was sufficient to wet plants to run-off. As a control, 100-110 milliliters of a water-acetone-emulsifier solution containing no test compound were also sprayed on infested plants. When dry, the paired leaves were separated and each one was placed in a 9 centimeter Petri dish lined with moistened filter paper. Five randomly selected larvae were introduced into each dish and the dishes were closed. The closed dishes were labeled and held at 80°-85° F. for 3 days. Although the larvae could easily consume the whole leaf within 24 hours, no more food was added. Larvae which were unable to move the length of the body, even upon stimulation by prodding, were considered dead. Per cent mortality was recorded for various concentration levels.
as §2

[4] = test system: house flies (Musca domestica, L.); test: Fly Bait Test; details: for LC50: Musca domestica, 24 hours, read-out: Insect LD50, Housefly; for (b) relative efficacy of derivative vs parent compound, Housefly: formula of footnote b is drawing 8
Method: as §1
Four to six day old adult house flies (Musca domestica, L.), reared according to the specifications of the Chemical Specialities Manufacturing Association (Blue Book, McNair-Dorland Co., N.Y. 1954; pages 243-244, 261) under controlled conditions of 80°±5° F. and 50±5 per cent relative humidity, were the test insects. The flies were immobilized by anesthetizing with carbon dioxide and twenty five immobilized individuals, males and females, were transferred to a cage consisting of a standard food strainer about five inches in diameter which was inverted over a wrapping-paper covered surface. The test compounds were formulated by diluting the stock suspension with a 10 per cent (by weight) sugar solution to give a suspension containing 500 parts of test compound per million parts of final formulation, by weight. Ten milliliters of the test formulation were added to a souffle cup containing a 1-inch square of an absorbent cotton pad. This bait cup was introduced and centered on the blotting paper under the food strainer prior to admitting the anesthetized flies. The caged flies were allowed to feed on the bait for 24 hours, at a temperature of 80°±5° F. and the relative humidity of 50±5 per cent.
as §2

[5] = Mammalian Toxicity (peroral, rat); details: rat, in vivo, po, peroral
Method: (§3) These compositions were also evaluated to determine their peroral toxicity to mammals by conventional methods. The animal selected for this experiment was the rat. The test results obtained are expressed in terms of the number of milligrams of composition per kilogram of weight of the animal required to achieve a mortality rate of 50 percent (LD50).
as §2

rat = test: Mammalian Toxicity (peroral, rat); details: for (b) relative value of derivative vs parent compound, Rat LD50: peroral, formula of footnote b is drawing 8; for mammalian toxicity (in words): text statement
Method: as §3, §2

[6] = Table II, read-out: Rat Tox. LD50
[7] = molar weight LD50, Table I, read-out: Rat LD50/mole wt. [a]

| SMILES | LC50 [1] [µg/mL] | contact vs stomach poison, house fly (in words) [1] | (Imm/Bait), Housefly [1] | LC50 [2] [µg/mL] | LC50 [3] [µg/mL] | LC50 [4] [µg/mL] | LD50 ([5]; Table I, read-out: Rat LD50) [mg/kg] | LD50 [5, 6] [mg/kg] | LD50 ([5]; read-out: rat LD50 (molar)) [µmol/kg] | LD50 [5, 7] [µmol/kg] | (b) relative efficacy of derivative vs parent compound, Armyworm [3] | (b) relative value of derivative vs parent compound, Rat LD50 (rat) | (b) relative efficacy of derivative vs parent compound, Housefly [4] | more toxic to mammals than the parent compound (rat; molar LD50 comparison, vs compound 1) | mammalian toxicity (in words) (rat) | safety relative to the parent (molar) (rat; vs parent compound, molar basis) | less toxic to mammals than its parent compound, weight basis (rat; vs parent compound, weight basis) | mammalian toxicity (in words) (rat; listed as O-[ N-methyl-N-[4-(t-butylphenyl) sulfenyl] carbamoyl] S-isopropyl thiolacetohyd) |
| --- | --- | --- | --- | --- | --- | --- | --- | --- | --- | --- | --- | --- | --- | --- | --- | --- | --- | --- |
| CNC(=O)ON=C(C)SC [Compound 1, O-(methylcarbamoyl) S-methyl acetothiolhydroximate] | 32 (≈ 197 µM) | significantly more toxic as stomach poisons than as contact poisons | 8 | 4 (≈ 24.7 µM) | 11 (≈ 67.8 µM) | 4 (≈ 24.7 µM) | 48.5 | 48.5 | 330 | – | – | – | – | – | – | – | – | – |
| CNC(=O)ON=C(C)SC(C)C [Compound 2] | 66 (≈ 347 µM) | significantly more toxic as stomach poisons than as contact poisons | 6 | 25 (≈ 131 µM) | 17 (≈ 89.3 µM) | 11 (≈ 57.8 µM) | 7.7 | 7.7 | – | 40 | – | – | – | – | – | – | – | – |
| CCSC(C)=NOC(=O)NC [Compound 3] | – | – | – | 12 (≈ 68.1 µM) | 11 (≈ 62.4 µM) | 3 (≈ 17 µM) | – | 17.7 | – | – | – | – | – | – | – | – | – | – |
| CSC(C)=NOC(=O)N(C)Sc1ccc(Cl)cc1 [Compound 4] | 24 (≈ 78.7 µM) | – | 3 | 2 (≈ 6.56 µM) | 10 (≈ 32.8 µM) | 8 (≈ 26.2 µM) | 65 | 65 | – | 210 | 2.1 | 1.43 | – | – | – | – | – | – |
| CC(=NOC(=O)N(C)Sc1ccc(Cl)cc1)SC(C)C [Compound 5] | 25 (≈ 75.1 µM) | – | 0.5 | 3 (≈ 9.01 µM) | 30 (≈ 90.1 µM) | 50 (≈ 150 µM) | 16.2 | 16.2 | – | 48 | 1.0 | 0.83 | 0.4 | – | – | – | – | – |
| CSC(C)=NOC(=O)N(C)Sc1ccc(C)cc1 [Compound 6] | 14 (≈ 49.2 µM) | – | 7 | 5 (≈ 17.6 µM) | 6 (≈ 21.1 µM) | 2 (≈ 7.03 µM) | 56.6 | 56.6 | 200 | – | 3.2 | 1.5 | – | at least 50% | – | – | – | – |
| CC(=NOC(=O)N(C)Sc1ccc(C)cc1)SC(C)C [Compound 7] | 25 (≈ 80 µM) | – | 0.5 | 5 (≈ 16 µM) | 12 (≈ 38.4 µM) | 50 (≈ 160 µM) | 18.7 | 16.2 | – | 60 | 2.3 | 0.67 | 0.38 | – | – | – | – | – |
| CSC(C)=NOC(=O)N(C)Sc1ccc(C(C)(C)C)cc1 [Compound 8, O-[N-Methyl-N-[4-(t-butylphenyl)sulfenyl]carbamoyl] S-Methyl Acetothiolhydroximate] | 14 (≈ 42.9 µM) | outstanding contact poison | 0.8 | 2.5 (≈ 7.66 µM) | 4 (≈ 12.3 µM) | 17 (≈ 52.1 µM) | 196 | 196 | 600 | – | 5.7 | 0.5 | 0.4 | – | extremely low mammalian toxicity | about twice as safe as the parent | at least 4 times | – |
| CC(=NOC(=O)N(C)Sc1ccc(C(C)(C)C)cc1)SC(C)C [Compound 9, O-[N-Methyl-N-[4-(t-Butylphenyl)sulfenyl]carbamoyl] S-Isopropyl Thiolacetohydroximate] | 10 (≈ 28.2 µM) | – | 0.2 | 9 (≈ 25.4 µM) | 19 (≈ 53.6 µM) | 50 (≈ 141 µM) | 71.3 | 71.3 | – | 200 | 1.6 | 0.2 | 0.43 | – | substantial reduction in mammalian toxicity | – | – | very low level of mammalian toxicity |
